Results as given in the supplement of paper PMC10307832.

Assays:
Test in all cases: relative viability (nuclei count vs DMSO), 5 days (fraction); higher = more cells survive
NCI-H1703 = test system: NCI-H1703
Procedure, shortened: (§1)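 Relative viability equals treated-well nuclei counts divided by vehicle-well nuclei counts. Counts came from 4× images of lung cancer cell lines grown in 1536-well plates for 5 days after pin-tool dosing on the day after seeding. Dosing used one drug alone or a fixed anchor-drug dose plus five library-drug doses (not always all listed) in √10 steps, and values are medians of duplicate plates.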

EBC-1 = test system: EBC-1
Procedure, shortened: as §1

A549 = test system: A549
Procedure, shortened: as §1

IA-LM = test system: IA-LM
Procedure, shortened: as §1

Calu-6 = test system: Calu-6
Procedure, shortened: as §1

NCI-H1563 = test system: NCI-H1563
Procedure, shortened: as §1

NCI-H1299 = test system: NCI-H1299
Procedure, shortened: as §1

With `Cc1cnc(-c2cnc(NCCNc3ccc(C#N)cn3)nc2-c2ccc(Cl)cc2Cl)[nH]1` + CS(=O)(=O)CCNCc1ccc(-c2ccc3ncnc(Nc4ccc(OCc5cccc(F)c5)c(Cl)c4)c3c2)o1 [Lapatinib] (partner 2 µM) the relative viability (NCI-H1703; first compound 0.08 µM) was 1.12, the relative viability (NCI-H1703; first compound 0.253 µM) was 1.02 and the relative viability (NCI-H1703; first compound 0.8 µM) was 1.2. The relative viability (NCI-H1703; first compound 2.53 µM) was 1.28, the relative viability (EBC-1; first compound 0.08 µM) was 0.253 and the relative viability (EBC-1; first compound 0.253 µM) was 0.201. It also gave a relative viability (EBC-1; first compound 0.8 µM) of 0.215, a relative viability (EBC-1; first compound 2.53 µM) of 0.248 and a relative viability (A549; first compound 0.08 µM) of 0.96. The relative viability (A549; first compound 0.253 µM) was 0.942, the relative viability (A549; first compound 0.8 µM) was 1.16 and the relative viability (A549; first compound 2.53 µM) was 1.14. For the same compound, the relative viability (IA-LM; first compound 0.08 µM) was 0.985, the relative viability (IA-LM; first compound 0.253 µM) was 0.864 and the relative viability (IA-LM; first compound 0.8 µM) was 0.679. For the same compound, the relative viability (IA-LM; first compound 2.53 µM) was 0.685, the relative viability (Calu-6; first compound 0.08 µM) was 1.14 and the relative viability (Calu-6; first compound 0.253 µM) was 0.991. For the same compound, the relative viability (Calu-6; first compound 0.8 µM) was 1, the relative viability (Calu-6; first compound 2.53 µM) was 1.03 and the relative viability (NCI-H1563; first compound 0.08 µM) was 1.06. The relative viability (NCI-H1563; first compound 0.253 µM) was 0.997, the relative viability (NCI-H1563; first compound 0.8 µM) was 0.963 and the relative viability (NCI-H1563; first compound 2.53 µM) was 1.01. For the same compound, the relative viability (NCI-H1299; first compound 0.08 µM) was 0.954, the relative viability (NCI-H1299; first compound 0.253 µM) was 0.983 and the relative viability (NCI-H1299; first compound 0.8 µM) was 0.948. The relative viability (NCI-H1299; first compound 2.53 µM) was 0.862.
`Cc1cnc(-c2cnc(NCCNc3ccc(C#N)cn3)nc2-c2ccc(Cl)cc2Cl)[nH]1` + Cc1nc(NC(=O)N2CCC[C@H]2C(N)=O)sc1-c1ccnc(C(C)(C)C(F)(F)F)c1 [Alpelisib] (partner 2 µM) showed a relative viability (NCI-H1703; first compound 0.08 µM) of 0.329, a relative viability (NCI-H1703; first compound 0.253 µM) of 0.312 and a relative viability (NCI-H1703; first compound 0.8 µM) of 0.37. The relative viability (NCI-H1703; first compound 2.53 µM) was 0.535, the relative viability (EBC-1; first compound 0.08 µM) was 0.796 and the relative viability (EBC-1; first compound 0.253 µM) was 0.782. For the same compound, the relative viability (EBC-1; first compound 0.8 µM) was 0.78, the relative viability (EBC-1; first compound 2.53 µM) was 0.812 and the relative viability (A549; first compound 0.08 µM) was 0.853. It also gave a relative viability (A549; first compound 0.253 µM) of 0.753, a relative viability (A549; first compound 0.8 µM) of 0.818 and a relative viability (A549; first compound 2.53 µM) of 0.94. It also gave a relative viability (IA-LM; first compound 0.08 µM) of 0.837, a relative viability (IA-LM; first compound 0.253 µM) of 0.77 and a relative viability (IA-LM; first compound 0.8 µM) of 0.86. For the same compound, the relative viability (IA-LM; first compound 2.53 µM) was 0.826, the relative viability (Calu-6; first compound 0.08 µM) was 0.946 and the relative viability (Calu-6; first compound 0.253 µM) was 0.924. It also gave a relative viability (Calu-6; first compound 0.8 µM) of 0.934, a relative viability (Calu-6; first compound 2.53 µM) of 0.822 and a relative viability (NCI-H1563; first compound 0.08 µM) of 1.02. The relative viability (NCI-H1563; first compound 0.253 µM) was 0.9, the relative viability (NCI-H1563; first compound 0.8 µM) was 0.946 and the relative viability (NCI-H1563; first compound 2.53 µM) was 0.913. The relative viability (NCI-H1299; first compound 0.08 µM) was 1.01, the relative viability (NCI-H1299; first compound 0.253 µM) was 0.992 and the relative viability (NCI-H1299; first compound 0.8 µM) was 1.1. It also gave a relative viability (NCI-H1299; first compound 2.53 µM) of 0.996.
`O=C(O)CCCCC(CCSCc1ccccc1)SCc1ccccc1` (stereo unspecified) [CPI-613] + Cc1nc(NC(=O)N2CCC[C@H]2C(N)=O)sc1-c1ccnc(C(C)(C)C(F)(F)F)c1 [Alpelisib] (partner 2 µM) showed a relative viability (NCI-H1703; first compound 5 µM) of 0.381, a relative viability (NCI-H1703; first compound 15.81 µM) of 0.484 and a relative viability (NCI-H1703; first compound 50 µM) of 0.275. The relative viability (NCI-H1703; first compound 158.11 µM) was 0.208, the relative viability (NCI-H1703; first compound 500 µM) was 0.0611 and the relative viability (EBC-1; first compound 5 µM) was 0.823. It also gave a relative viability (EBC-1; first compound 15.81 µM) of 0.651, a relative viability (EBC-1; first compound 50 µM) of 0.678 and a relative viability (EBC-1; first compound 158.11 µM) of 0.199. For the same compound, the relative viability (EBC-1; first compound 500 µM) was 0.0384, the relative viability (A549; first compound 5 µM) was 0.859 and the relative viability (A549; first compound 15.81 µM) was 0.675. The relative viability (A549; first compound 50 µM) was 0.69, the relative viability (A549; first compound 158.11 µM) was 0.384 and the relative viability (A549; first compound 500 µM) was 0.0243. The relative viability (IA-LM; first compound 5 µM) was 0.614, the relative viability (IA-LM; first compound 15.81 µM) was 0.679 and the relative viability (IA-LM; first compound 50 µM) was 0.644. It also gave a relative viability (IA-LM; first compound 158.11 µM) of 0.399, a relative viability (IA-LM; first compound 500 µM) of 0.0122 and a relative viability (Calu-6; first compound 5 µM) of 0.997. For the same compound, the relative viability (Calu-6; first compound 15.81 µM) was 0.876, the relative viability (Calu-6; first compound 50 µM) was 0.891 and the relative viability (Calu-6; first compound 158.11 µM) was 0.174. It also gave a relative viability (Calu-6; first compound 500 µM) of 0.0521, a relative viability (NCI-H1563; first compound 5 µM) of 0.958 and a relative viability (NCI-H1563; first compound 15.81 µM) of 0.938. For the same compound, the relative viability (NCI-H1563; first compound 50 µM) was 0.939, the relative viability (NCI-H1563; first compound 158.11 µM) was 0.796 and the relative viability (NCI-H1563; first compound 500 µM) was 0.113. It also gave a relative viability (NCI-H1299; first compound 5 µM) of 1.02, a relative viability (NCI-H1299; first compound 15.81 µM) of 1.04 and a relative viability (NCI-H1299; first compound 50 µM) of 1.04. For the same compound, the relative viability (NCI-H1299; first compound 158.11 µM) was 1.09 and the relative viability (NCI-H1299; first compound 500 µM) was 1.08.
